Assay results reported in patent publication US20250186442A1, “Obicetrapib and Ezetimibe Combination Treatment and Fixed Dose Pharmaceutical Compositions” (NewAmsterdam Pharma B.V., priority 2022, published 2025).

How the values were obtained:
[1] = Kinetic solubility in FeSSIF (pH 5.0) at 37° C.; format: physicochemical; conditions: FeSSIF pH 5.0, 37° C., as obicetrapib free acid
From the text: (§1) The amorphous form has a higher kinetic solubility and dissolution rate than the crystalline form (and by extension obicetrapib itself). Both crystalline and amorphous obicetrapib hemicalcium kinetic solubility determinations were made in biorelevant media at different pHs, namely at about 5.0 (FeSSIF conditions) and at pH of about 6.5 (FaSSIF) conditions as set forth in Example 11.28.
The concentrations in Table W are those of obicetrapib (i.e., the free acid).
(§2) The solids were magnetically stirred at 600 RPM in a shaker bath and samples were drawn with a 1.0 ml syringe at T=15 mins, 30 mins, 60 mins, 90 mins and 120 mins. The solubility was measured using HPLC method provided by the client. The compound was added to 4.0 ml glass vials at approximately 20.0 mg/ml. Samples were agitated with a vortex mixer for about 5 minutes to ensure the presence of undissolved excess powder. The sample collected at each time point was centrifuged at 1200 RPM, filtered with 0.45 μm Polytetrafluoroethylene (PTFE) filters and diluted with methanol before HPLC analysis. In order to minimize the effect of potential analyte adsorption on the filter, the initial 0.5 mL of supernatant passing through the filter was discarded prior to collecting sample for HPLC analysis.

[2] = Kinetic solubility in FaSSIF (pH 6.5) at 37° C.; format: physicochemical; conditions: FaSSIF pH 6.5, 37° C., as obicetrapib free acid
From the text: as §1
The concentrations in Table X are those of obicetrapib (i.e., the free acid).
as §2

[3] = ROSE2 phase 2b clinical trial - safety and tolerability (adverse events); format: in vivo, human; conditions: Safety Population
Method: (§3) The exploratory objectives of this study include the following: • To evaluate the effect of obicetrapib 10 mg+ezetimibe 10 mg combination therapy and obicetrapib 10 mg monotherapy, when used as an adjunct to high-intensity statin therapy, on non-high-density lipoprotein cholesterol (non-HDL-C), very low-density lipoprotein cholesterol (VLDL-C), HDL-C, TG, ApoE, Lp(a), and HDL-ApoE at Day 84; • To evaluate the effect of obicetrapib 10 mg+ezetimibe 10 mg combination therapy and obicetrapib 10 mg monotherapy, when used as an adjunct to high-intensity statin therapy, on the proportion of participants achieving predefined LDL-C targets at Day 84; • To assess the mean trough plasma levels of obicetrapib 10 mg+ezetimibe 10 mg combination therapy and obicetrapib 10 mg monotherapy at steady state on Days 28, 84, and 112; and • To evaluate the safety and tolerability profiles of obicetrapib 10 mg+ezetimibe 10 mg combination therapy and obicetrapib 10 mg monotherapy, when used as an adjunct to high-intensity statin therapy, assessed by clinical laboratory values and incidence of AEs.
The safety and tolerability profile of obicetrapib 10 mg, both in combination with ezetimibe 10 mg and as monotherapy, will be assessed by clinical laboratory assessments (chemistry and hematology), vital signs, physical examinations, and the incidence of AEs.
An AE can therefore be any unfavorable and/or unintended sign (including an abnormal laboratory finding), symptom, or disease temporally associated with the use of an investigational medicinal product, whether or not related to the investigational medicinal product. All AEs, including observed or volunteered problems, complaints, or symptoms, are to be recorded on the appropriate eCRF.
AEs, which include clinical laboratory assessment variables, will be monitored and documented from the time of first dose of study treatment until completion of Visit 5. Participants should be instructed to report any AE that they experience to the Investigator, whether or not they think the event is due to study drug. Beginning at the date of the first dose of study treatment, Investigators should make an assessment for AEs at each visit and record the event on the appropriate AE eCRF.
The Investigator will assess the severity (intensity) of each AE as mild, moderate, or severe, and will also categorize each AE as to its potential relationship to study drug using the categories of yes or no.
• Mild—An event that is easily tolerated and generally not interfering with normal daily activities. • Moderate—An event that is sufficiently discomforting to interfere with normal daily activities. • Severe—An event that is incapacitating with inability to work or perform normal daily activities.
An AE or adverse reaction is considered serious if, in the view of either the Investigator or Sponsor, it results in any of the following outcomes: • Death; • A life-threatening AE;
The Safety Population will include all participants who receive at least 1 dose of any study drug. Treatment classification will be based on the actual treatment received. The Safety Population will be the primary population used for the safety analyses.

[4] = test system: Lp(a); assay: ROSE2 phase 2b clinical trial - Lp(a); format: in vivo, human; conditions: Exploratory Population
Method: as §3
This study will be a placebo-controlled, double-blind, randomized, Phase 2 study to evaluate the efficacy, safety, and tolerability of obicetrapib 10 mg, both in combination with ezetimibe 10 mg and as monotherapy, as an adjunct to high-intensity statin therapy. This study will take place at approximately 20 sites in the United States.
Up to 2 weeks after the Screening Visit, participants will return to the site on Day 1 (Visit 2) and confirm study eligibility before being randomized and beginning treatment. Approximately 114 eligible participants (38 participants per treatment group) will be randomized in a 1:1:1 ratio to 1 of the following treatment groups: • Combination therapy: Obicetrapib 10 mg+ezetimibe 10 mg (administered as one 10 mg obicetrapib tablet and one 10 mg ezetimibe capsule); • Obicetrapib monotherapy: Obicetrapib 10 mg (administered as one 10 mg obicetrapib tablet and 1 placebo capsule); or • Placebo (administered as 1 placebo tablet and 1 placebo capsule).
The exploratory efficacy endpoints include the following: • Percent change from Day 1 to Day 84 in non-HDL-C, VLDL-C, HDL-C, TG, ApoE, Lp(a), and HDL-ApoE for the obicetrapib 10 mg+ezetimibe 10 mg combination treatment group compared with the placebo group and for the obicetrapib 10 mg monotherapy treatment group compared with the placebo group; and • Proportion of participants at Day 84 that achieve LDL-C<2.6 mmol/L (<100 mg/dL), LDL-C<1.8 mmol/L (<70 mg/dL), and LDL-C<1.3 mmol/L (<50 mg/dL) for the obicetrapib 10 mg+ezetimibe 10 mg combination treatment group compared with the placebo group and for the obicetrapib 10 mg monotherapy treatment group compared with the placebo group.
Blood samples for the lipid profile must be obtained under fasting conditions (ie, after the participant has fasted for approximately 10 hours). For the purposes of this study, fasting will be defined as nothing by mouth except water and any essential medications. If a participant is not fasting, the Investigator should reschedule the visit as soon as possible. LDL-C level will be calculated using the Friedewald equation unless TG≥400 mg/dL or LDL-C≤50 mg/dL; in both cases, LDL-C level will be measured directly by preparative ultracentrifugation, also referred to as beta quantification. Additionally, LDL-C will be measured by preparative ultracentrifugation, also referred to as beta quantification, at baseline (Visit 2) and at the end of the 12-week Treatment Period (Visit 4) for all participants.
The Modified ITT (mITT) Population will include all participants in the ITT Population who receive at least 1 dose of any study drug and have a baseline value for the LDL-C assessment. […]

CCOC(=O)N1c2ccc(C(F)(F)F)cc2[C@@H](N(Cc2cc(C(F)(F)F)cc(C(F)(F)F)c2)c2ncc(OCCCC(=O)[O-])cn2)C[C@H]1CC.CCOC(=O)N1c2ccc(C(F)(F)F)cc2[C@@H](N(Cc2cc(C(F)(F)F)cc(C(F)(F)F)c2)c2ncc(OCCCC(=O)[O-])cn2)C[C@H]1CC.[Ca+2] [Amorphous obicetrapib hemicalcium Batch #1]
Concentration in Solution ([1]; 15 mins): 520 µg/mL | Concentration in Solution ([1]; 30 mins): 661 µg/mL | Concentration in Solution ([1]; 60 mins): 675 µg/mL | Concentration in Solution ([1]; 90 mins): 696 µg/mL | Concentration in Solution ([1]; 120 mins): 675 µg/mL | Concentration in Solution ([2]; 15 mins): 60 µg/mL | Concentration in Solution ([2]; 30 mins): 99 µg/mL | Concentration in Solution ([2]; 60 mins): 163 µg/mL | Concentration in Solution ([2]; 90 mins): 201 µg/mL | Concentration in Solution ([2]; 120 mins): 244 µg/mL

CCOC(=O)N1c2ccc(C(F)(F)F)cc2[C@@H](N(Cc2cc(C(F)(F)F)cc(C(F)(F)F)c2)c2ncc(OCCCC(=O)[O-])cn2)C[C@H]1CC.CCOC(=O)N1c2ccc(C(F)(F)F)cc2[C@@H](N(Cc2cc(C(F)(F)F)cc(C(F)(F)F)c2)c2ncc(OCCCC(=O)[O-])cn2)C[C@H]1CC.[Ca+2] [Amorphous obicetrapib hemicalcium Batch #2]
Concentration in Solution ([1]; 15 mins): 502 µg/mL | Concentration in Solution ([1]; 30 mins): 618 µg/mL | Concentration in Solution ([1]; 60 mins): 628 µg/mL | Concentration in Solution ([1]; 90 mins): 658 µg/mL | Concentration in Solution ([1]; 120 mins): 642 µg/mL | Concentration in Solution ([2]; 15 mins): 90 µg/mL | Concentration in Solution ([2]; 30 mins): 140 µg/mL | Concentration in Solution ([2]; 60 mins): 229 µg/mL | Concentration in Solution ([2]; 90 mins): 293 µg/mL | Concentration in Solution ([2]; 120 mins): 387 µg/mL

CCOC(=O)N1c2ccc(C(F)(F)F)cc2[C@@H](N(Cc2cc(C(F)(F)F)cc(C(F)(F)F)c2)c2ncc(OCCCC(=O)O)cn2)C[C@H]1CC [Obicetrapib 10 mg]
Any TEAEs by maximum severity: Mild, (%) ([3]; (%)): (20.5) % | Any TEAEs by maximum severity: Moderate, (%) ([3]; (%)): (7.7) % | Any TEAEs by maximum severity: Severe, (%) ([3]; (%)): (10.3) % | Any TEAEs leading to death, (%) ([3]; (%)): (0.0) % | Any serious TEAEs (TESAEs), (%) ([3]; (%)): (5.1) % | Any study drug-related TEAEs by maximum severity: Mild, (%) ([3]; (%)): (10.3) % | Any study drug-related TEAEs by maximum severity: Moderate, (%) ([3]; (%)): (5.1) % | Any study drug-related TEAEs by maximum severity: Severe, (%) ([3]; (%)): (5.1) % | Any study drug-related TEAEs leading to discontinuation of study drug, (%) ([3]; (%)): (5.1) % | Any study drug-related TEAEs, (%) ([3]; (%)): (2.6) % | Any study drug-related TESAEs, (%) ([3]; (%)): (2.6) % | Any treatment-emergent AEs (TEAEs), (%) ([3]; (%)): (20.5) % | Any TEAEs leading to discontinuation of study drug, (%) ([3]; (%), first line with this label (r25)): (0.0) % | Any TEAEs leading to discontinuation of study drug, (%) ([3]; (%), last line of the table (r40)): (0.0) % | Any TEAEs by maximum severity: Mild, e ([3]; column e): 20 | Any TEAEs leading to death, e ([3]; column e): 0 | Any serious TEAEs (TESAEs), e ([3]; column e): 2 | Any study drug-related TEAEs by maximum severity: Mild, e ([3]; column e): 4 | Any study drug-related TEAEs leading to discontinuation of study drug, e ([3]; column e): 5 | Any study drug-related TESAEs, e ([3]; column e): 1 | Any treatment-emergent AEs (TEAEs), e ([3]; column e): 20 | Any TEAEs leading to discontinuation of study drug, e ([3]; column e, last line of the table (r40)): 0 | Lp(a) Day 84, Mean ([4]; Day 84): 74.75 nmol/L | Lp(a) Day 84, Median ([4]; Day 84): 20.85 nmol/L | Lp(a) Day 84 Maximum ([4]; Day 84): 327.7 nmol/L | Lp(a) Day 84 Minimum ([4]; Day 84): 2.8 nmol/L | Lp(a) Change from Baseline to Day 84, Mean [4]: -27.66 nmol/L | Lp(a) Change from Baseline to Day 84, Median [4]: -10.95 nmol/L | Lp(a) Change from Baseline to Day 84 Maximum [4]: 3.0 nmol/L | Lp(a) Change from Baseline to Day 84 Minimum [4]: -148.8 nmol/L | Lp(a) Percent Change from Baseline to Day 84 (%) Maximum [4]: 103.4% | Lp(a) Percent Change from Baseline to Day 84 (%) Minimum [4]: −84.6% | Lp(a) Percent Change from Baseline to Day 84 (%), Mean [4]: −24.44% | Lp(a) Percent Change from Baseline to Day 84 (%), Median [4]: −22.75%
